Data on one cell line can be found in the supplement of paper PMC10307832.

Holding throughout (assay): relative viability (nuclei count vs DMSO), 5 days (fraction); higher = more cells survive
Compound in test [1]: C1/C(=C\C2=CC=CS2)/C(=O)/C(=C/C3=CC=CS3)/C1 + CCNC(=O)c1noc(-c2cc(C(C)C)c(O)cc2O)c1-c1ccc(CN2CCOCC2)cc1 [Luminespib] (partner 0.01 µM)
Put shortly:
(§1)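 Lung cancer cell lines were seeded in 1536-well plates and dosed by pin tool the next day, with either a single drug or a fixed anchor-drug dose combined with five library-drug doses (not always all listed) spaced in √10 steps. Five days later, one step fixed the cells and stained their nuclei (final 0.05% Triton X-100, 1% formaldehyde, 1 ug/ml Hoechst), and nuclei were counted on 4× images. Relative viability is the nuclei count in treated wells divided by the count in vehicle wells, and each value is the median of duplicate plates.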

Compound in test [2]: C1/C(=C\C2=CC=CS2)/C(=O)/C(=C/C3=CC=CS3)/C1 + Cc1nc(Nc2ncc(C(=O)Nc3c(C)cccc3Cl)s2)cc(N2CCN(CCO)CC2)n1 [Dasatinib] (partner 0.075 µM)
In short, it runs like this:
as §1

Compound in the test “TPCA-1 + Navitoclax”: C1=CC(=CC=C1C2=CC(=C(S2)NC(=O)N)C(=O)N)F [TPCA-1] + CC1(C)CCC(c2ccc(Cl)cc2)=C(CN2CCN(c3ccc(C(=O)NS(=O)(=O)c4ccc(N[C@H](CCN5CCOCC5)CSc5ccccc5)c(S(=O)(=O)C(F)(F)F)c4)cc3)CC2)C1 [Navitoclax] (partner 0.5 µM)
Put shortly: as §1

Compound in the test “TPCA-1 + Alpelisib”: C1=CC(=CC=C1C2=CC(=C(S2)NC(=O)N)C(=O)N)F [TPCA-1] + Cc1nc(NC(=O)N2CCC[C@H]2C(N)=O)sc1-c1ccnc(C(C)(C)C(F)(F)F)c1 [Alpelisib] (partner 2 µM)
Put shortly:
as §1

In the case of UMC-11, the relative viability in test [1] (first compound 0.2 µM) stood at 1.02; in test [1] (first compound 0.6325 µM), 0.978; in test [1] (first compound 20 µM), 1.05; in test [2] (first compound 0.2 µM), 0.555; in test [2] (first compound 0.6325 µM), 0.507; in test [2] (first compound 20 µM), 0.472. For the same cell line, the relative viability was determined as 0.354 with TPCA-1 + Navitoclax (first compound 0.04 µM); 0.335 with TPCA-1 + Navitoclax (first compound 0.1265 µM); 0.394 with TPCA-1 + Navitoclax (first compound 0.4 µM); 0.415 with TPCA-1 + Navitoclax (first compound 1.265 µM); 0.253 with TPCA-1 + Navitoclax (first compound 4 µM); 0.988 with TPCA-1 + Alpelisib (first compound 0.04 µM). For the same cell line, the relative viability with TPCA-1 + Alpelisib (first compound 0.1265 µM) came out at 0.946; with TPCA-1 + Alpelisib (first compound 0.4 µM), 1.05; in the test with TPCA-1 + Alpelisib (first compound 1.265 µM), 0.96; with TPCA-1 + Alpelisib (first compound 4 µM), 0.731.
